US8637511B2, “Aminopyrimidines useful as kinase inhibitors” (Vertex Pharmaceuticals Incorporated, priority 2005, dated 2014)
Values joined by “and” are separate entries in the source; they are usually repeats but may differ in a detail not shown here. Identical values can stand only once. Like-named read-outs stand apart in the source and are kept apart here.

Tests used:
Aurora-1 (Aurora B) = Aurora-1 (Aurora B) (Homo sapiens, UniProt Q96GD4); test: Aurora-1 (Aurora B) inhibition assay (radiometric); type: biochemical
Outline: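 Radiometric ^33P incorporation into peptide substrate, with [γ-^33P]-ATP at 800 μM final, in 25 mM HEPES pH 7.5, 10 mM MgCl2, 0.1% BSA, 10% glycerol. Compound preincubated with enzyme for 10 min at 25° C, reaction run 3 h, then captured on phosphocellulose. Ki from initial rates by non-linear regression after background subtraction.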

Colo205 cells = test: Analysis of cell proliferation and viability; type: cell-based; conditions: Homo sapiens, COLO 205, Colo205 cells, read-out: IC50 value
JAK3 = target: T1, JAK3 (Homo sapiens, UniProt P52333); test: biochemical
T1 sequence (P52333 1-1124): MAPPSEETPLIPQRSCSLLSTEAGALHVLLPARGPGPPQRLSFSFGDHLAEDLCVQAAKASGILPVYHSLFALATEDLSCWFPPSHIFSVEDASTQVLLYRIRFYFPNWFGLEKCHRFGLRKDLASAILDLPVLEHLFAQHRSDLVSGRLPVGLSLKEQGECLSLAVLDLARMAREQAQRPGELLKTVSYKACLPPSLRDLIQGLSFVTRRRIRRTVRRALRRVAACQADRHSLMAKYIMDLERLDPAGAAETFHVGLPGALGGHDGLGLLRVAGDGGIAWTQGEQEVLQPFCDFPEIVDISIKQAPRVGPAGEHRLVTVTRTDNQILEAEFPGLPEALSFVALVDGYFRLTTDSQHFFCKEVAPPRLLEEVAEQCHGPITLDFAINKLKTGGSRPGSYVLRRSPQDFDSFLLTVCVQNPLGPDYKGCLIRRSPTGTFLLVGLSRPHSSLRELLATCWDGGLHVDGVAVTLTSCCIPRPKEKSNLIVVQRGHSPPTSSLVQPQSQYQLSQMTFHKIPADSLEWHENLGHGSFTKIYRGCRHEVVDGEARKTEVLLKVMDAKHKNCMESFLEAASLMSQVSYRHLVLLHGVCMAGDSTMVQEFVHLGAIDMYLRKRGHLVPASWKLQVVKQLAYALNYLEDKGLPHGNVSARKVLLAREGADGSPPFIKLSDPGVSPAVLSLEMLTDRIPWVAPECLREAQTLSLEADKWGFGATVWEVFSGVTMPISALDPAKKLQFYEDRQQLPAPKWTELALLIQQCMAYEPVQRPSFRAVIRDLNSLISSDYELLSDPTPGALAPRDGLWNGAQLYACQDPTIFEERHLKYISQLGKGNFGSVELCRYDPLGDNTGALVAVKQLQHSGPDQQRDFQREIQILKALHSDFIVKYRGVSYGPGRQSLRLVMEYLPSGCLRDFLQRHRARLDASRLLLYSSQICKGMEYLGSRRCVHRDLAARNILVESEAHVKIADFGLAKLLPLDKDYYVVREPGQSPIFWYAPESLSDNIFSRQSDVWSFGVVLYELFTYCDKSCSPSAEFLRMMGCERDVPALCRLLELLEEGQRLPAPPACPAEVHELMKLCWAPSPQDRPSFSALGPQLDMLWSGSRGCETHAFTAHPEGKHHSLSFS

[1] = read-out: Aurora B kinase Ki value

Sequence of Aurora-1 (Aurora B) (Q96GD4 whole entry): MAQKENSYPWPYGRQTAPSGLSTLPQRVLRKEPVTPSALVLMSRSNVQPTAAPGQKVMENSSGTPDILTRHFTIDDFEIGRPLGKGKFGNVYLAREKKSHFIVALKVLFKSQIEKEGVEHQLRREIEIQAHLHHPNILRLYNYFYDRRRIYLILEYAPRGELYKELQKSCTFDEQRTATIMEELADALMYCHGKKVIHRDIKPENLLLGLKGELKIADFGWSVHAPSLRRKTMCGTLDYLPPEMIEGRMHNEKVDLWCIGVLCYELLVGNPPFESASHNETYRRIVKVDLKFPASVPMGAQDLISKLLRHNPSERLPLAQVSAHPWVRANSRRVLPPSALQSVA

| Ki (Aurora-1 (Aurora B); Aurora B kinase Ki value) | Compound | Ki (Aurora-1 (Aurora B); [1]) | IC50 (Colo205 cells; incubated for 72 hours) | Ki (JAK3) | IC50 (Colo205 cells; incubated for 96 hours) | Ki (JAK3; read-out: JAK3 Ki value) |
| --- | --- | --- | --- | --- | --- | --- |
| – | Cc1cc(Nc2cc(N3CCC3)nc(Sc3ccc(NC(=O)CCC(F)(F)F)cc3)n2)[nH]n1 [Compound 121] | 10 to 50 nM and < 25 nM | 30 to 200 nM | 10 to 500 nM | – | – |
| – | Cc1ccc(S(=O)(=O)Nc2ccc(Sc3nc(Nc4cc(C)[nH]n4)cc(N4CCC4)n3)cc2)cc1 [Compound 27] | 50 to 2000 nM | – | 500 to 2000 nM | > 1000 nM | – |
| – | Cc1cc(Nc2cc(N3CCC3)nc(Sc3ccc(C(=O)NC4CCCC4)cc3)n2)n[nH]1 [Compound 23] | 50 to 2000 nM | – | 500 to 2000 nM | > 1000 nM | – |
| – | Cc1cnc(Nc2cc(N3CC(N(C)C)C3)nc(Sc3ccc(NC(=O)C4CC4)cc3)n2)s1 [Compound 1] | 10 to 50 nM | – | 10 to 500 nM | 50 to 1000 nM | – |
| – | Cc1cc(Nc2cc(N3CCC3)nc(Sc3ccc(NC(=O)C4CC4(F)F)cc3)n2)[nH]n1 (stereo not shown) [Compound 112] | 10 to 50 nM and < 25 nM | > 200 nM | – | – | ≤ 10 nM |
| – | Cc1cnc(Nc2cc(N3CC(O)C3)nc(Sc3ccc(NC(=O)C4CC4)cc3)n2)s1 [Compound 3] | ≤ 10 nM | – | – | > 1000 nM | 10 to 500 nM |
| – | CCC(=O)Nc1ccc(Sc2nc(C#CC(C)(C)N3CCC3)cc(Nc3cc(C)n[nH]3)n2)cc1 [Compound 77] | 50 to 2000 nM | – | 500 to 2000 nM | 50 to 1000 nM | – |
| – | Cc1cc(Nc2cc(N3CCC3)nc(Sc3ccc(N)cc3)n2)[nH]n1 [Compound 108] | 50 to 2000 nM | – | – | > 1000 nM | ≤ 10 nM |
| – | Cc1cc(Nc2cc(N3CCC3)nc(Sc3ccc(NC(=O)Cc4ccccc4)cc3)n2)n[nH]1 [Compound 35] | 10 to 50 nM | – | 500 to 2000 nM | 50 to 1000 nM | – |
| – | Cc1cc(Nc2cc(N3CCC3)nc(Sc3cccc(NC(=O)c4ccccc4Cl)c3)n2)[nH]n1 [Compound 49] | 50 to 2000 nM | – | – | > 1000 nM | 10 to 500 nM |
| – | Cc1cc(Nc2cc(N3CC(C)C3)nc(Sc3ccc(NC(=O)c4ccccc4Cl)cc3)n2)n[nH]1 [Compound 39] | 10 to 50 nM and < 25 nM | – | – | 50 to 1000 nM | 10 to 500 nM |
| – | Cc1cc(Nc2cc(N3CCC3)nc(Sc3ccc(NC(=O)c4c(F)cccc4N4CCC4)cc3)n2)n[nH]1 [Compound 8] | ≤ 10 nM | – | 10 to 500 nM | 50 to 1000 nM | – |
| – | CCC(=O)Nc1ccc(Sc2nc(Nc3cc(C)n[nH]3)cc(N3CC(O)(C(C)(C)C)C3)n2)cc1 [Compound 81] | ≤ 10 nM | ≤ 30 nM | – | ≤ 50 nM | ≤ 10 nM |
| – | Cc1cc(Nc2cc(N3CCC3)nc(Sc3ccc(NC(=O)Cc4cccc(Cl)c4)cc3)n2)[nH]n1 [Compound 58] | 10 to 50 nM and < 25 nM | – | – | 50 to 1000 nM | 500 to 2000 nM |
| – | CCC(=O)Nc1ccc(Sc2nc(Nc3cc(C)n[nH]3)cc(N3CC(C)(OC(C)C)C3)n2)cc1 [Compound 95] | 10 to 50 nM and < 25 nM | – | 10 to 500 nM | ≤ 50 nM | – |
| – | CCC(=O)Nc1ccc(Sc2nc(Nc3cc(C)n[nH]3)cc(N3CC(C)(NC(C)(C)C)C3)n2)cc1 [Compound 80] | 10 to 50 nM | – | 10 to 500 nM | ≤ 50 nM | – |
| – | Cc1cc(Nc2cc(N3CC(N4CC[C@H](F)C4)C3)nc(Sc3ccc4ncccc4c3)n2)n[nH]1 [Compound 160] | ≤ 10 nM | ≤ 30 nM | – | – | ≤ 10 nM |
| – | Cc1cc(Nc2cc(N3CC(O)(C4CC4)C3)nc(Sc3ccc4ccccc4c3)n2)n[nH]1 [Compound 131] | 50 to 2000 nM | > 200 nM | ≤ 10 nM | – | – |
| – | Cc1cc(Nc2cc(N3CC(F)(C4CC4)C3)nc(Sc3ccc4nc(C(F)(F)F)cn4c3)n2)[nH]n1 [Compound 190] | 10 to 50 nM | 30 to 200 nM | – | – | 10 to 500 nM |
| 10 to 50 nM and < 25 nM | CC1=NN=C(Nc2cc(N3CCC3)nc(Sc3ccc(NC(=O)C4CCCN4C)cc3)n2)C1 (stereo not shown) [Compound 6] | – | – | – | 50 to 1000 nM | – |
| – | Cc1cc(Nc2cc(N3CCC3)nc(Sc3ccc(N(C)C(=O)c4ccccc4F)cc3)n2)n[nH]1 [Compound 10] | 50 to 2000 nM | – | 10 to 500 nM | – | – |
| – | Cc1cc(Nc2cc(N3CC(F)(C4CC4)C3)nc(Sc3ccc(N)cc3)n2)[nH]n1 [Compound 209] | 50 to 2000 nM | – | ≤ 10 nM | – | – |
